Read-outs that look alike come from different tables or passages of the source.
Tests used:
CepR = molecular target: T1, CepR (Burkholderia multivorans, UniProt Q93PF7); experiment: CepR antagonism in B. multivorans cepI::lacZ reporter (Bm-reporter), competition against C8-AHL; format: cell-based
T1 sequence (Q93PF7 1-239): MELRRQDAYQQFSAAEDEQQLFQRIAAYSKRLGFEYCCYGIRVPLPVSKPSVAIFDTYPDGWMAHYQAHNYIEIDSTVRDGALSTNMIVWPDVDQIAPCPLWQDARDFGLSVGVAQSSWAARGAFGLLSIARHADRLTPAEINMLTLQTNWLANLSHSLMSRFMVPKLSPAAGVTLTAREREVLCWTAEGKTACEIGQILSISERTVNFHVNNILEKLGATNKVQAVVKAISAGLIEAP
Text: We next sought to assess if the CepR modulators identified in the Ec-reporter maintained their activities in a member of the Bcc. For these studies, we generated a B. multivorans cepI::lacZ reporter organism (Bm-reporter) using standard allelic exchange methods (see Methods). Along with B. cenocepacia, B. multivorans is one of the most commonly isolated Bcc members[6],[44]. We note that small molecules must contend with a different cellular environment in the native organism relative to E. coli[48]; however, as both CepR and the cepI promoter are highly conserved among Bcc species (Fig. S3), we reasoned that the majority of compounds identified in the Ec-reporter (containing B. cenocepacia versions of the cepI promoter and the cepR gene) would maintain their relative activity profiles in CepR in B. multivorans. […] Similar to the Ec-reporter, CepR binding to the cepI promoter then induces β-galactosidase production, allowing for the quantitation of CepR activity. Using the Bm-reporter organism, we observed robust activity for CepR in response to C8-AHL (EC50 = 0.7 nM, Table 3).
The B. multivorans cepI::lacZ strain was used to obtain dose-response data for CepR in response to synthetic AHLs. Overnight cultures of B. multivorans cepI::lacZ were grown in LB medium at 37 °C with shaking (225 rpm). Aliquots (200 μL) of a 1:10 dilution of this overnight culture were plated into 96-well plates containing varying concentrations of compound, and then grown for 4 h at 37 °C with shaking (225 rpm). β-galactosidase production was measured as described above for E. coli, with the following changes: permeabilized cells were incubated at 25 °C with substrate CPRG for ~10 min until positive control wells developed a deep red color. For agonism assays, synthetic compound was screened alongside and compared to the native ligand, C8-AHL (100 μM). For antagonism assays, the concentration of native ligand utilized was 5 nM (approximately equal to twice its EC50 value).

LasR, RhlR, and QscR = experiment: Comparison of activities in CepR vs. the three LuxR-type receptors in P. aeruginosa; conditions: preliminary analyses; comparison with earlier data ref 22, 24, 59
Text: To close, the compounds identified herein constitute new chemical tools to study QS in Bcc species in a variety of contexts. Given the strong conservation of CepR between Bcc members, we hypothesize our compounds will maintain their activity profiles across Bcc member species and we can begin to use them to assess the role of CepI/CepR QS on a broader scale. […] A next step moving forward will be to gauge the selectivity of the ligands identified herein for CepR over other LuxR-type receptors. […] Such compounds could allow for the selective targeting of QS in one organism in a mixed culture over time and allow for insights into the potential for interspecies interactions via QS and their effects on host health outcomes. Ongoing studies are focused in this arena, along with further delineating the mechanisms by which our CepR ligands agonize and antagonize CepR, and will be reported in due course.

B. multivorans ATCC17616 = experiment: Swarming motility assay (0.5% agar); format: cell-based; conditions: 50 μM C8-AHL
Text: We were interested to assess the effects of our lead CepR modulators on a phenotype under the control of QS in B. multivorans. However, very little work has been reported to directly link CepR activity in B. multivorans to any QS-controlled phenotype. […] Therefore, we chose to study the effects of compound treatment on both the swarming and swimming motility of B. multivorans (B. multivorans ATCC17616; see Methods).
We then tested the ability of our non-native compounds to modulate swimming motility in B. multivorans.
Figure S4. Motility assays (A ) on 0.3% agar (i.e., to measure swimming) with th e B. multivorans parental and cepI::lacZ organisms, using +/- 50 μM C8-AHL and (B) on 0. 5 % ag a r (i.e . , t o measure swarming ) with the B. multivorans parental organism, using +/- 50 μ M C8-AHL. Se e main text for assay methods.
(1 picture or pasted object on this page, not shown here)

[1] = Bm-reporter, against 5 nM C8-AHL

| SMILES | IC50 (CepR) [nM] | Maximal Inhibition (%) (CepR; [1]) | CepR antagonism in words (CepR; Bm-reporter) | IC50 (CepR; Bm-reporter, against 5 nM C8-AHL, read-out: IC50) [nM] | Selectivity for CepR over LasR, RhlR, QscR (LasR, RhlR, and QscR) | Swarming motility upon addition of compound (B. multivorans ATCC17616) |
| --- | --- | --- | --- | --- | --- | --- |
| O=C(CC1CCCC1)N[C@H]1CCOC1=O [Compound B12] | 2100 | 83 |  |  |  |  |
| O=C(Cc1cccc(Br)c1)N[C@H]1CCOC1=O [Compound C8] |  | 94 | bring reporter activity down to nearly zero | 2600 |  |  |
| CCCCCCCS(=O)(=O)N[C@H]1CCOC1=O [Compound A12] | 1700 | 82 |  |  | selective for CepR |  |
| O=C(Cc1cccc(C(F)(F)F)c1)N[C@H]1CCOC1=O [Compound E3] | 1900 | 100 | bring reporter activity down to nearly zero |  | selective for CepR |  |
| O=C(CCc1ccc([N+](=O)[O-])cc1)N[C@H]1CCOC1=O [Compound E37] |  |  |  |  | selective for CepR |  |
| CCCCCCCC(=O)N[C@H]1CCOC1=O [Compound C8-AHL, N-octanoyl L-homoserine lactone, reference compound] |  |  |  |  |  | not increased |

Source: PMC6748986, “Potent modulation of the CepR quorum sensing receptor and virulence in a Burkholderia cepacia complex member using non-native lactone ligands” (Scientific Reports, 2019)
